This experiment has as its system melanin present in the epidermis of human skin samples. Nature of the experiment: Depigmenting effect ex vivo on human skin biopsies (Fontana-Masson melanin staining). Particulars: 2 applications per day. The format is cell-based. The protocol: 6 mm diameter biopsies are taken from human skin samples. These biopsies are maintained in ex vivo survival in the presence of a specific medium (DMEM 1 g/L, HAMF12, SVF and antibiotics) on inserts deposited in 6-well plates. The biopsies are then pretreated for 24 hours with the active principle at 3% concentration at a rate of 2 applications per day. Other skin samples will not be pretreated with the active principle and will be used as the control condition. Subsequently, the biopsies are subjected to UVB irradiation at a rate of 100 mJ/cm^2. The pretreated biopsies are again treated for 24 hours with the active principle at 3% concentration at a rate of 2 applications per day. After this second treatment, a quantitative evaluation of the quantity of melanin present in the epidermis of skin samples is carried out histologically, with an optical microscope, after staining according to the Fontana-Masson method.
To do this, the skin biopsies are enclosed in paraffin and histological sections with a thickness of 4 μm are made. These sections are then stained by the Fontana-Masson technique: The paraffin is removed from the slides; the slides being hydrated and then treated with a silver ammonium hydroxide solution. […]

Where no end group is shown, it is not given here.

As for Asp-Cys-Arg-NH2 [SEQ ID No. 2], the “melanin level (pigmentation level) in the epidermis, absence of UVB irradiation” value (active principle at 3% concentration, 24 hours, no UVB, vs untreated skin, optical microscope) is “reduces the melanin level”. For the same substance, under “pretreated 24 hours at 3%, UVB 100 mJ/cm^2, treated again 24 hours, vs untreated control”, the “melanin synthesis induced by UVB irradiation (pigmentation level after UVB)” value is given as “very distinctly reduced”.

These data come from US8530623B2, “Proteasome-activating lightening peptides and compositions containing same” (ISP Investments Inc., priority 2009, dated 2013).
